Measured values reported in PMC5218480 (PLoS ONE, 2017).

Tested on: MV-4-11 cells
Test: Gene expression microarray analysis (Affymetrix PrimeView) and GSEA
Format: cell-based, human
Design: RFU PODN (11730768_x_at) / Fold change /veh PODN (11730768_x_at) / RFU LINC00158 (11744669_a_at) / Fold change /veh LINC00158 (11744669_a_at) / RFU DUSP10 (11751237_a_at) / Fold change /veh DUSP10 (11751237_a_at) / RFU ID3 (11757404_x_at) / Fold change /veh ID3 (11757404_x_at) / RFU PLEKHG5 (11737974_s_at) / Fold change /veh PLEKHG5 (11737974_s_at) / RFU LRRC4B (11730491_at) / Fold change /veh LRRC4B (11730491_at) / RFU GIMAP4 (11747438_a_at) / Fold change /veh GIMAP4 (11747438_a_at) / RFU KRT8 (11758183_x_at) / Fold change /veh KRT8 (11758183_x_at) / RFU CNN1 (11734310_a_at) / Fold change /veh CNN1 (11734310_a_at) / RFU VPS37D (11726825_at) / Fold change /veh VPS37D (11726825_at) / RFU C10orf10 (11716522_x_at) / Fold change /veh C10orf10 (11716522_x_at) / RFU KIR2DL2 /// KIR2DL4 /// KIR2DL5A /// KIR2DL5B /// KIR2DS1 /// KIR2DS2 /// KIR2DS3 /// KIR2DS4 /// KIR3DL3 /// KIR3DL3 /// KIR3DS1 (11738374_at) / Fold change /veh KIR2DL2 /// KIR2DL4 /// KIR2DL5A /// KIR2DL5B /// KIR2DS1 /// KIR2DS2 /// KIR2DS3 /// KIR2DS4 /// KIR3DL3 /// KIR3DL3 /// KIR3DS1 (11738374_at) / RFU C1QL1 (11718748_at) / Fold change /veh C1QL1 (11718748_at) / RFU TMPRSS4 (11747572_a_at) / Fold change /veh TMPRSS4 (11747572_a_at) / RFU HAMP (11756126_x_at) / Fold change /veh HAMP (11756126_x_at) / RFU RNFT2 (11725882_a_at) / Fold change /veh RNFT2 (11725882_a_at) / RFU NR4A2 (11747474_a_at) / Fold change /veh NR4A2 (11747474_a_at) / RFU ABCC12 (11746883_a_at) / Fold change /veh ABCC12 (11746883_a_at) / RFU TMEM136 (11760407_x_at) / Fold change /veh TMEM136 (11760407_x_at) / RFU CLDN22 /// WWC2 (11732394_at) / Fold change /veh CLDN22 /// WWC2 (11732394_at) / RFU HLA-DPB1 (11760878_x_at) / Fold change /veh HLA-DPB1 (11760878_x_at) / RFU SPINT1 (11716480_a_at) / Fold change /veh SPINT1 (11716480_a_at) / RFU GAP43 (11754022_s_at) / Fold change /veh GAP43 (11754022_s_at) / RFU A4GNT (11735810_at) / Fold change /veh A4GNT (11735810_at) / RFU PRB3 (11715151_x_at) / Fold change /veh PRB3 (11715151_x_at) / RFU TUBB4B (11761932_at) / Fold change /veh TUBB4B (11761932_at) / RFU CAPN14 (11732068_a_at) / Fold change /veh CAPN14 (11732068_a_at) / RFU TMCC2 (11721928_a_at) / Fold change /veh TMCC2 (11721928_a_at) / RFU IRGQ (11745062_a_at) / Fold change /veh IRGQ (11745062_a_at) / RFU FAM174B (11720279_a_at) / Fold change /veh FAM174B (11720279_a_at) / RFU TMPRSS4 (11748680_a_at) / Fold change /veh TMPRSS4 (11748680_a_at) / RFU FAM212B (11763350_a_at) / Fold change /veh FAM212B (11763350_a_at) / RFU PLEKHG5 (11743358_a_at) / Fold change /veh PLEKHG5 (11743358_a_at) / RFU ZSCAN30 (11745921_a_at) / Fold change /veh ZSCAN30 (11745921_a_at) / RFU CMKLR1 (11741424_a_at) / Fold change /veh CMKLR1 (11741424_a_at) / RFU LOC101060620 /// MAPK8IP1 (11723275_at) / Fold change /veh LOC101060620 /// MAPK8IP1 (11723275_at) / RFU SPTSSB (11747773_x_at) / Fold change /veh SPTSSB (11747773_x_at) / RFU PRSS12 (11739890_at) / Fold change /veh PRSS12 (11739890_at) / RFU BIN1 (11741810_x_at) / Fold change /veh BIN1 (11741810_x_at) / RFU WNT11 (11732464_a_at) / Fold change /veh WNT11 (11732464_a_at) / RFU C10orf10 (11716521_a_at) / Fold change /veh C10orf10 (11716521_a_at) / RFU C5orf56 (11738089_at) / Fold change /veh C5orf56 (11738089_at) / RFU CYB561 (11721691_x_at) / Fold change /veh CYB561 (11721691_x_at) / RFU ANKRD19P (11752326_a_at) / Fold change /veh ANKRD19P (11752326_a_at) / RFU OR2T12 /// OR2T33 /// OR2T8 (11738714_s_at) / Fold change /veh OR2T12 /// OR2T33 /// OR2T8 (11738714_s_at) / RFU VCAN (11748164_a_at) / Fold change /veh VCAN (11748164_a_at) / RFU JSRP1 (11732532_at) / Fold change /veh JSRP1 (11732532_at) / RFU KRTAP10-11 (11738290_x_at) / Fold change /veh KRTAP10-11 (11738290_x_at) / RFU MYO3A (11730013_a_at) / Fold change /veh MYO3A (11730013_a_at) / RFU EBF3 (11725865_a_at) / Fold change /veh EBF3 (11725865_a_at) / RFU CAMK2N1 (11719241_x_at) / Fold change /veh CAMK2N1 (11719241_x_at) / RFU C5orf56 (11738088_a_at) / Fold change /veh C5orf56 (11738088_a_at) / RFU OLFML3 (11715873_a_at) / Fold change /veh OLFML3 (11715873_a_at) / RFU LOC100653217 /// NTM (11731650_a_at) / Fold change /veh LOC100653217 /// NTM (11731650_a_at) / RFU MAPK11 (11762145_a_at) / Fold change /veh MAPK11 (11762145_a_at) / RFU FIZ1 (11724087_x_at) / Fold change /veh FIZ1 (11724087_x_at) / RFU OASL (11726364_x_at) / Fold change /veh OASL (11726364_x_at) / RFU SOX15 (11748057_x_at) / Fold change /veh SOX15 (11748057_x_at) / RFU CD79A (11719716_a_at) / Fold change /veh CD79A (11719716_a_at) / RFU HIST1H1D (11736915_at) / Fold change /veh HIST1H1D (11736915_at) / RFU CASKIN2 (11723855_a_at) / Fold change /veh CASKIN2 (11723855_a_at) / RFU LOC730098 (11760151_x_at) / Fold change /veh LOC730098 (11760151_x_at) / RFU OR4N2 (11742367_at) / Fold change /veh OR4N2 (11742367_at) / RFU PRRT2 (11749266_a_at) / Fold change /veh PRRT2 (11749266_a_at) / RFU SNX32 (11753110_a_at) / Fold change /veh SNX32 (11753110_a_at) / RFU CDHR5 (11726645_a_at) / Fold change /veh CDHR5 (11726645_a_at) / RFU RCAN1 (11760418_a_at) / Fold change /veh RCAN1 (11760418_a_at) / RFU FAM167A (11723789_a_at) / Fold change /veh FAM167A (11723789_a_at) / RFU FAM26E (11764081_at) / Fold change /veh FAM26E (11764081_at) / RFU ISYNA1 (11749810_s_at) / Fold change /veh ISYNA1 (11749810_s_at) / RFU ACY1 (11761880_at) / Fold change /veh ACY1 (11761880_at) / RFU 11764098_at / Fold change /veh 11764098_at / RFU SAMD14 (11745864_x_at) / Fold change /veh SAMD14 (11745864_x_at) / RFU NPB (11741838_a_at) / Fold change /veh NPB (11741838_a_at) / RFU TMPRSS6 (11731388_a_at) / Fold change /veh TMPRSS6 (11731388_a_at) / RFU KRTAP10-2 (11738614_at) / Fold change /veh KRTAP10-2 (11738614_at) / RFU ARHGAP8 /// PRR5-ARHGAP8 (11727945_x_at) / Fold change /veh ARHGAP8 /// PRR5-ARHGAP8 (11727945_x_at) / RFU KRTAP5-7 /// NADSYN1 (11734609_at) / Fold change /veh KRTAP5-7 /// NADSYN1 (11734609_at) / RFU RASL12 (11751679_a_at) / Fold change /veh RASL12 (11751679_a_at) / RFU CDKN2B (11736163_a_at) / Fold change /veh CDKN2B (11736163_a_at) / RFU PRF1 (11729649_at) / Fold change /veh PRF1 (11729649_at) / RFU, ZNF638 /// ZNF638-IT1 / Fold change vs veh, ZNF638 /// ZNF638-IT1 / RFU, PANK3 / Fold change vs veh, PANK3 / RFU, SH3YL1 / Fold change vs veh, SH3YL1 / RFU, ZEB2 / Fold change vs veh, ZEB2 / RFU, NRIP1 / Fold change vs veh, NRIP1 / RFU, PTTG1IP / Fold change vs veh, PTTG1IP / RFU, CAPN2 / Fold change vs veh, CAPN2 / RFU, MED14 / Fold change vs veh, MED14 / RFU, SNORA58 / Fold change vs veh, SNORA58 / RFU, C1orf63 / Fold change vs veh, C1orf63 / RFU, LRRFIP1 / Fold change vs veh, LRRFIP1 / RFU, NDUFAF7 / Fold change vs veh, NDUFAF7 / RFU, SLC12A2 / Fold change vs veh, SLC12A2 / RFU, IBTK / Fold change vs veh, IBTK / RFU, ESF1 / Fold change vs veh, ESF1 / Fold change vs veh, TMEM50B / RFU, TAOK1 / Fold change vs veh, TAOK1 / RFU, ACBD3 / Fold change vs veh, ACBD3 / RFU, TMA16 / Fold change vs veh, TMA16 / RFU, RWDD3 / Fold change vs veh, RWDD3 / RFU, BCAT1 / Fold change vs veh, BCAT1 / RFU, EDEM3 / Fold change vs veh, EDEM3 / RFU, TMEM33 / Fold change vs veh, TMEM33 / RFU, WDR75 / Fold change vs veh, WDR75 / RFU, AHCTF1 / Fold change vs veh, AHCTF1 / RFU, TFRC / Fold change vs veh, TFRC / RFU, ZDHHC17 / Fold change vs veh, ZDHHC17 / RFU, NOM1 / Fold change vs veh, NOM1 / RFU, ARL8B / Fold change vs veh, ARL8B / RFU, ZBTB11 / Fold change vs veh, ZBTB11 / RFU, TAMM41 / Fold change vs veh, TAMM41 / RFU, KIAA1704 /// LOC100996395 / Fold change vs veh, KIAA1704 /// LOC100996395 / RFU, ING1 / Fold change vs veh, ING1 / RFU, TRMT61B / Fold change vs veh, TRMT61B / RFU, FUBP3 / Fold change vs veh, FUBP3 / RFU, TP53 / Fold change vs veh, TP53 / RFU, TNKS2 / Fold change vs veh, TNKS2 / RFU, ZFP14 / Fold change vs veh, ZFP14 / RFU, ACTR2 / Fold change vs veh, ACTR2 / RFU, PPP3R1 / Fold change vs veh, PPP3R1 / RFU, PIK3R1 / Fold change vs veh, PIK3R1 / RFU, HNRNPA1 / Fold change vs veh, HNRNPA1 / RFU, RNF170 / Fold change vs veh, RNF170 / RFU, ZNF28 / Fold change vs veh, ZNF28 / RFU, RNGTT / Fold change vs veh, RNGTT / RFU, OGT / Fold change vs veh, OGT / RFU, BRD1 / Fold change vs veh, BRD1 / RFU, MARS / Fold change vs veh, MARS / RFU, ZNF655 / Fold change vs veh, ZNF655 / RFU, FAHD1 / Fold change vs veh, FAHD1 / RFU, BDP1 / Fold change vs veh, BDP1 / RFU, LRRCC1 / Fold change vs veh, LRRCC1 / RFU, ARID1A / Fold change vs veh, ARID1A / RFU, ZNF146 / Fold change vs veh, ZNF146 / RFU, ZNF330 / Fold change vs veh, ZNF330 / RFU, GPN3 / Fold change vs veh, GPN3 / RFU, C9orf123 / Fold change vs veh, C9orf123 / RFU, N4BP2L2 / Fold change vs veh, N4BP2L2 / RFU, ARFIP1 / Fold change vs veh, ARFIP1 / RFU, FAM179B / Fold change vs veh, FAM179B / RFU, BCL10 / Fold change vs veh, BCL10 / RFU, UHRF1BP1L / Fold change vs veh, UHRF1BP1L / RFU, BET1 / Fold change vs veh, BET1 / RFU, CNOT2 / Fold change vs veh, CNOT2 / RFU, ZNF268 / Fold change vs veh, ZNF268 / Fold change vs veh, ZNF507 / RFU, DGCR2 / Fold change vs veh, DGCR2 / RFU, WDSUB1 / Fold change vs veh, WDSUB1 / Fold change vs veh, HSP90B1 /// MIR3652 / RFU, ADSS / Fold change vs veh, ADSS / RFU, GK / Fold change vs veh, GK / RFU, ZNF148 / Fold change vs veh, ZNF148 / RFU, TAF9 / Fold change vs veh, TAF9 / RFU, SLC1A5 / Fold change vs veh, SLC1A5 / RFU, SLMO2 / Fold change vs veh, SLMO2 / RFU, ABCC4 / Fold change vs veh, ABCC4 / RFU, LOC101060439 /// RAP1B / Fold change vs veh, LOC101060439 /// RAP1B / RFU, RFX7 / Fold change vs veh, RFX7 / RFU, GTPBP10 / Fold change vs veh, GTPBP10 / RFU, CNEP1R1 / Fold change vs veh, CNEP1R1 / RFU, BIVM-ERCC5 /// ERCC5 / Fold change vs veh, BIVM-ERCC5 /// ERCC5 / RFU, ILF3 / Fold change vs veh, ILF3 / RFU 11762660_at / Fold change /veh 11762660_at / RFU VCAN (11757783_s_at) / Fold change /veh VCAN (11757783_s_at) / RFU DDX43 (11728927_at) / Fold change /veh DDX43 (11728927_at) / RFU KRT8 (11758188_x_at) / Fold change /veh KRT8 (11758188_x_at) / RFU NKD1 (11759106_at) / Fold change /veh NKD1 (11759106_at) / RFU SRD5A1 (11742802_a_at) / Fold change /veh SRD5A1 (11742802_a_at) / RFU TPSAB1 /// TPSB2 (11721975_s_at) / Fold change /veh TPSAB1 /// TPSB2 (11721975_s_at) / RFU GSTM3 (11746129_a_at) / Fold change /veh GSTM3 (11746129_a_at) / RFU IL23R (11737362_x_at) / Fold change /veh IL23R (11737362_x_at) / RFU TMEM51 (11727254_a_at) / Fold change /veh TMEM51 (11727254_a_at) / RFU PIWIL2 (11732686_x_at) / Fold change /veh PIWIL2 (11732686_x_at) / RFU ORM1 (11744905_x_at) / Fold change /veh ORM1 (11744905_x_at) / RFU CCDC152 (11743942_at) / Fold change /veh CCDC152 (11743942_at) / RFU ECM1 (11717891_a_at) / Fold change /veh ECM1 (11717891_a_at) / RFU IL23R (11748794_a_at) / Fold change /veh IL23R (11748794_a_at) / RFU TNFAIP8L3 (11732012_x_at) / Fold change /veh TNFAIP8L3 (11732012_x_at) / RFU MBOAT4 (11741988_at) / Fold change /veh MBOAT4 (11741988_at) / RFU 11764193_at / Fold change /veh 11764193_at / RFU TMEM53 (11763286_at) / Fold change /veh TMEM53 (11763286_at) / RFU MAGEB2 (11727129_at) / Fold change /veh MAGEB2 (11727129_at) / RFU TMEM200A (11744735_a_at) / Fold change /veh TMEM200A (11744735_a_at) / RFU CCDC152 (11751479_a_at) / Fold change /veh CCDC152 (11751479_a_at) / RFU FAM211A (11726209_a_at) / Fold change /veh FAM211A (11726209_a_at) / RFU RGS16 (11746705_a_at) / Fold change /veh RGS16 (11746705_a_at) / RFU VCAN (11755009_s_at) / Fold change /veh VCAN (11755009_s_at) / RFU RHOB (11743442_s_at) / Fold change /veh RHOB (11743442_s_at) / RFU RGS16 (11720943_a_at) / Fold change /veh RGS16 (11720943_a_at) / RFU RGS16 (11720944_at) / Fold change /veh RGS16 (11720944_at) / RFU, VPS4B / Fold change vs veh, VPS4B / RFU, CREB1 / Fold change vs veh, CREB1 / RFU, DNAJC13 / Fold change vs veh, DNAJC13 / RFU, GNAQ / Fold change vs veh, GNAQ / RFU, CDK5R1 / Fold change vs veh, CDK5R1 / RFU, ZRANB3 / Fold change vs veh, ZRANB3 / RFU, CUL4A / Fold change vs veh, CUL4A / RFU, CCNY / Fold change vs veh, CCNY / RFU, UFL1 / Fold change vs veh, UFL1 / RFU, COG3 / Fold change vs veh, COG3 / RFU, DIAPH2 / Fold change vs veh, DIAPH2 / RFU, SKA2 / Fold change vs veh, SKA2 / RFU, AFF3 / Fold change vs veh, AFF3 / RFU, LMF1 / Fold change vs veh, LMF1 / RFU, IPO11 / Fold change vs veh, IPO11 / RFU, DFFB / Fold change vs veh, DFFB / RFU, FOXP1 / Fold change vs veh, FOXP1 / RFU, CARD8 / Fold change vs veh, CARD8 / RFU, STRN3 / Fold change vs veh, STRN3 / RFU, ADK / Fold change vs veh, ADK / RFU, RASSF2 / Fold change vs veh, RASSF2 / RFU, WIPF1 / Fold change vs veh, WIPF1 / RFU, LARP1B / Fold change vs veh, LARP1B / RFU, RASA1 / Fold change vs veh, RASA1 / RFU, RB1 / Fold change vs veh, RB1 / RFU, PPFIA1 / Fold change vs veh, PPFIA1 / RFU, MAT2A / Fold change vs veh, MAT2A / RFU, CCT5 / Fold change vs veh, CCT5 / RFU, WDR92 / Fold change vs veh, WDR92 / RFU, CUX1 / Fold change vs veh, CUX1 / RFU, TTC7A / Fold change vs veh, TTC7A / RFU, TMEM135 / Fold change vs veh, TMEM135 / RFU, DEPTOR / Fold change vs veh, DEPTOR / RFU, CPM / Fold change vs veh, CPM / RFU, DNAJB6 / Fold change vs veh, DNAJB6 / RFU, CACNA2D3 / Fold change vs veh, CACNA2D3 / RFU, DTX4 / Fold change vs veh, DTX4 / RFU, TFCP2 / Fold change vs veh, TFCP2 / RFU, GMCL1 /// GMCL1P1 / Fold change vs veh, GMCL1 /// GMCL1P1 / RFU, AEBP2 / Fold change vs veh, AEBP2 / RFU, SNHG1 /// SNORD22 /// SNORD25 /// SNORD26 /// SNORD27 /// SNORD28 /// SNORD29 /// SNORD31 / Fold change vs veh, SNHG1 /// SNORD22 /// SNORD25 /// SNORD26 /// SNORD27 /// SNORD28 /// SNORD29 /// SNORD31 / Fold change (Aza/veh), C12orf56 (ProbeSet 11735607_a_at) / Fold change (ACY-1035/veh), C12orf56 (ProbeSet 11735607_a_at) / Fold change (Aza/veh), FGFR1OP (ProbeSet 11751329_s_at) / Fold change (ACY-1035/veh), FGFR1OP (ProbeSet 11751329_s_at) / Fold change (Aza/veh), VPS36 (ProbeSet 11739960_a_at) / Fold change (ACY-1035/veh), VPS36 (ProbeSet 11739960_a_at) / RFU SYPL1 (11715823_x_at) / Fold change /veh SYPL1 (11715823_x_at) / RFU IGFBP7 (11715501_s_at) / Fold change /veh IGFBP7 (11715501_s_at) / RFU REEP3 (11722064_at) / Fold change /veh REEP3 (11722064_at) / RFU IGLL1 (11728026_x_at) / Fold change /veh IGLL1 (11728026_x_at): dose or concentration left out as unconfirmed
Settings: ProbeSet 11725141_a_at; LIST B

Nc1ccc(-c2cccs2)cc1NC(=O)c1ccc2c(c1)cc(C1CC1)n2CCN1CCOCC1 [ACY-1035]
RFU, FUBP3: 490.19 RFU
